EP4617278A1, “NUCLEOTIDE ANALOG, AND COMPOSITION AND USE THEREOF” (priority 2022, dated 2024)

Test system: SARS-CoV-2 replicon
Assay type: cell-based
Settings: read-out: SARS-CoV-2 Replicon (Huh-7cell) EC50

Compound: CCC(CC)COC(=O)[C@H](C)N[P@@](=O)(OCOC(=O)C(C)(C)C)OC[C@H]1O[C@@](C#N)(c2ccc3c(N)ncnn23)[C@H](OC(=O)C(C)C)[C@@H]1OC(=O)C(C)C [Compound 11b, (2R,3R,4R,5R)-2-(4-aminopyrrolo[2,1-f][1,2,4]triazin-7-yl)-2-cyano-5-((((S)-(((S)-1-(2-ethylbutoxy)-1-oxopropan-2-yl)amino)((pivaloyloxy)methoxy)phosphoryl)oxy)methyl)tetrahydrofuran-3,4-diyl bis(2-methylpropionate)]
- EC50: < 5 nM

Compound: CCC(CC)COC(=O)[C@H](C)N[P@](=O)(OCOC(=O)C(C)(C)C)OC[C@H]1O[C@@](C#N)(c2ccc3c(N)ncnn23)[C@H](OC(=O)C(C)(C)C)[C@@H]1OC(=O)C(C)(C)C [Compound 12a, (2R,3R,4R,5R)-2-(4-aminopyrrolo[2,1-f][1,2,4]triazin-7-yl)-2-cyano-5-((((R)-(((S)-1-(2-ethylbutoxy)-1-oxopropan-2-yl)amino)((pivaloyloxy)methoxy)phosphoryl)oxy)methyl)tetrahydrofuran-3,4-diyl bis(2,2-dimethylpropionate)]
- EC50: 50 to 500 nM

Compound: CCC(CC)COC(=O)[C@H](C)N[P@@](=O)(OCOC(=O)C(C)(C)C)OC[C@H]1O[C@@](C#N)(c2ccc3c(N)ncnn23)[C@H](OC(=O)C(C)(C)C)[C@@H]1OC(=O)C(C)(C)C [Compound 12b, (2R,3R,4R,5R)-2-(4-aminopyrrolo[2,1-f][1,2,4]triazin-7-yl)-2-cyano-5-((((S)-(((S)-1-(2-ethylbutoxy)-1-oxopropan-2-yl)amino)((pivaloyloxy)methoxy)phosphoryl)oxy)methyl)tetrahydrofuran-3,4-diyl bis(2,2-dimethylpropionate)]
- EC50: 50 to 500 nM

Compound: CC(C)OC(=O)OCO[P@@](=O)(N[C@@H](C)C(=O)OC1CCC1)OC[C@H]1O[C@@](C#N)(c2ccc3c(N)ncnn23)[C@H](OC(=O)C(C)C)[C@@H]1OC(=O)C(C)C [Compound 13a, (2R,3R,4R,5R)-2-(4-aminopyrrolo[2,1-f][1,2,4]triazin-7-yl)-2-cyano-5-((((R)-(((S)-1-cyclobutoxy-1-oxopropan-2-yl)amino)(((isopropoxycarbonyl)oxy)methoxy)phosphoryl)oxy)methyl)tetrahydrofuran-3,4-diyl bis(2-methylpropionate)]
- EC50: < 5 nM

Compound: CC(C)OC(=O)OCO[P@](=O)(N[C@@H](C)C(=O)OC1CCC1)OC[C@H]1O[C@@](C#N)(c2ccc3c(N)ncnn23)[C@H](OC(=O)C(C)C)[C@@H]1OC(=O)C(C)C [Compound 13b, (2R,3R,4R,5R)-2-(4-aminopyrrolo[2,1-f][1,2,4]triazin-7-yl)-2-cyano-5-((((S)-(((S)-1-cyclobutoxy-1-oxopropan-2-yl)amino)(((isopropoxycarbonyl)oxy)methoxy)phosphoryl)oxy)methyl)tetrahydrofuran-3,4-diyl bis(2-methylpropionate)]
- EC50: < 5 nM

Compound: CCC(CC)COC(=O)[C@H](C)N[P@](=O)(OCc1ccccc1C)OC[C@H]1O[C@@](C#N)(c2ccc3c(N)ncnn23)[C@H](OC(=O)C(C)C)[C@@H]1OC(=O)C(C)C [Compound 16a, (2R,3R,4R,5R)-2-(4-aminopyrrolo[2,1-f][1,2,4]triazin-7-yl)-2-cyano-5-((((S)-(((S)-1-(2-ethylbutoxy)-1-oxopropan-2-yl)amino)((2-methylbenzyl)oxy)phosphoryl)oxy)methyl)tetrahydrofuran-3,4-diyl bis(2-methylpropionate)]
- EC50: 50 to 500 nM

Compound: CCC(CC)COC(=O)[C@H](C)N[P@@](=O)(OCc1ccccc1C)OC[C@H]1O[C@@](C#N)(c2ccc3c(N)ncnn23)[C@H](OC(=O)C(C)C)[C@@H]1OC(=O)C(C)C [Compound 16b, (2R,3R,4R,5R)-2-(4-aminopyrrolo[2,1-f][1,2,4]triazin-7-yl)-2-cyano-5-((((R)-(((S)-1-(2-ethylbutoxy)-1-oxopropan-2-yl)amino)((2-methylbenzyl)oxy)phosphoryl)oxy)methyl)tetrahydrofuran-3,4-diyl bis(2-methylpropionate)]
- EC50: 50 to 500 nM

Compound: CC(=O)O[C@H]1[C@@H](OC(C)=O)[C@](C#N)(c2ccc3c(N)ncnn23)O[C@@H]1COP(=O)(OCOC(=O)OC(C)C)OCOC(=O)OC(C)C [Compound 17, (2R,3R,4R,5R)-2-(4-aminopyrrolo[2,1-f][1,2,4]triazin-7-yl)-5-((((bis(((isopropoxycarbonyl)oxy)methoxy)phosphoryl))oxy)methyl)-2-cyanotetrahydrofuran-3,4-diyl diacetate]
- EC50: < 5 nM

Compound: CCC(=O)O[C@H]1[C@@H](OC(=O)CC)[C@](C#N)(c2ccc3c(N)ncnn23)O[C@@H]1COP(=O)(OCOC(=O)OC(C)C)OCOC(=O)OC(C)C [Compound 18, (2R,3R,4R,5R)-2-(4-aminopyrrolo[2,1-f][1,2,4]triazin-7-yl)-5-((((bis(((isopropoxycarbonyl)oxy)methoxy))phosphoryl)oxy)methyl)-2-cyanotetrahydrofuran-3,4-diyl dipropionate]
- EC50: < 5 nM

Compound: CC(C)OC(=O)OCOP(=O)(OCOC(=O)OC(C)C)OC[C@H]1O[C@@](C#N)(c2ccc3c(N)ncnn23)[C@H](OC(=O)C(C)C)[C@@H]1OC(=O)C(C)C [Compound 19, (2R,3R,4R,5R)-2-(4-aminopyrrolo[2,1-f][1,2,4]triazin-7-yl)-5-((((bis(((isopropoxycarbonyl)oxy)methoxy))phosphoryl)oxy)methyl)-2-cyanotetrahydrofuran-3,4-diyl bis(2-methylpropionate)]
- EC50: < 5 nM

Compound: CC(C)OC(=O)OCOP(=O)(OCOC(=O)OC(C)C)OC[C@H]1O[C@@](C#N)(c2ccc3c(N)ncnn23)[C@H](OC(=O)C(C)(C)C)[C@@H]1OC(=O)C(C)(C)C [Compound 20, (2R,3R,4R,5R)-2-(4-aminopyrrolo[2,1-f][1,2,4]triazin-7-yl)-5-((((bis(((isopropoxycarbonyl)oxy)methoxy))phosphoryl)oxy)methyl)-2-cyanotetrahydrofuran-3,4-diyl bis(2,2-dimethylpropionate)]
- EC50: 10 to 50 nM

Compound: [2H]c1cc([C@]2(C#N)O[C@H](COP(=O)(OCOC(=O)OC(C)C)OCOC(=O)OC(C)C)[C@@H](OC(=O)C(C)C)[C@H]2OC(=O)C(C)C)n2ncnc(N)c12 [Compound 21, (2R,3R,4R,5R)-2-(4-amino-5-deuteriopyrrolo[2,1-f][1,2,4]triazin-7-yl)-5-((((bis(((isopropoxycarbonyl)oxy)methoxy))phosphoryl)oxy)methyl)-2-cyanotetrahydrofuran-3,4-diyl bis(2-methylpropionate)]
- EC50: < 5 nM

Compound: CC(=O)O[C@H]1[C@@H](OC(C)=O)[C@](C#N)(c2ccc3c(N)ncnn23)O[C@@H]1CO[P@](=O)(OCOC(=O)OC(C)C)Oc1ccc(C(C)(C)C)cc1 [Compound 22a, (2R,3R,4R,5R)-2-(4-aminopyrrolo[2,1-f][1,2,4]triazin-7-yl)-5-((((S)-(4-tert-butylphenoxy)(((isopropoxycarbonyl)oxy)methoxy)phosphoryl)oxy)methyl)-2-cyanotetrahydrofuran-3,4-diyl diacetate]
- EC50: < 5 nM

Compound: CC(=O)O[C@H]1[C@@H](OC(C)=O)[C@](C#N)(c2ccc3c(N)ncnn23)O[C@@H]1CO[P@@](=O)(OCOC(=O)OC(C)C)Oc1ccc(C(C)(C)C)cc1 [Compound 22b, ((2R,3R,4R,5R)-2-(4-aminopyrrolo[2,1-f][1,2,4]triazin-7-yl)-5-((((R)-(4-tert-butylphenoxy)(((isopropoxycarbonyl)oxy)methoxy)phosphoryl)oxy)methyl)-2-cyanotetrahydrofuran-3,4-diyl diacetate]
- EC50: 5 to 10 nM

Compound: CCC(=O)O[C@H]1[C@@H](OC(=O)CC)[C@](C#N)(c2ccc3c(N)ncnn23)O[C@@H]1CO[P@](=O)(OCOC(=O)OC(C)C)Oc1ccc(C(C)(C)C)cc1 [Compound 23a, (2R,3R,4R,5R)-2-(4-aminopyrrolo[2,1-f][1,2,4]triazin-7-yl)-5-((((S)-(4-tert-butylphenoxy)(((isopropoxycarbonyl)oxy)methoxy)phosphoryl)oxy)methyl)-2-cyanotetrahydrofuran-3,4-diyl dipropionate]
- EC50: < 5 nM

Compound: CCC(=O)O[C@H]1[C@@H](OC(=O)CC)[C@](C#N)(c2ccc3c(N)ncnn23)O[C@@H]1CO[P@@](=O)(OCOC(=O)OC(C)C)Oc1ccc(C(C)(C)C)cc1 [Compound 23b, ((2R,3R,4R,5R)-2-(4-aminopyrrolo[2,1-f][1,2,4]triazin-7-yl)-5-((((R)-(4-tert-butylphenoxy)(((isopropoxycarbonyl)oxy)methoxy)phosphoryl)oxy)methyl)-2-cyanotetrahydrofuran-3,4-diyl dipropionate]
- EC50: 5 to 10 nM

Compound: CC(C)OC(=O)OCO[P@@](=O)(OC[C@H]1O[C@@](C#N)(c2ccc3c(N)ncnn23)[C@H](OC(=O)C(C)C)[C@@H]1OC(=O)C(C)C)Oc1ccc(C(C)(C)C)cc1 [Compound 24a, (2R,3R,4R,5R)-2-(4-aminopyrrolo[2,1-f][1,2,4]triazin-7-yl)-5-((((S)-(4-tert-butylphenoxy)(((isopropoxycarbonyl)oxy)methoxy)phosphoryl)oxy)methyl)-2-cyanotetrahydrofuran-3,4-diyl bis(2-methylpropionate)]
- EC50: < 5 nM

Compound: CC(C)OC(=O)OCO[P@](=O)(OC[C@H]1O[C@@](C#N)(c2ccc3c(N)ncnn23)[C@H](OC(=O)C(C)C)[C@@H]1OC(=O)C(C)C)Oc1ccc(C(C)(C)C)cc1 [Compound 24b]
- EC50: 10 to 50 nM

Compound: CC(C)C(=O)OCO[P@@](=O)(OC[C@H]1O[C@@](C#N)(c2ccc3c(N)ncnn23)[C@H](OC(=O)C(C)C)[C@@H]1OC(=O)C(C)C)Oc1ccc(C(C)(C)C)cc1 [Compound 26a, (2R,3R,4R,5R)-2-(4-aminopyrrolo[2,1-f][1,2,4]triazin-7-yl)-5-((((S)-(4-tert-butylphenoxy)((isobutyryloxy)methoxy)phosphoryl)oxy)methyl)-2-cyanotetrahydrofuran-3,4-diyl bis(2-methylpropionate)]
- EC50: 5 to 10 nM

Compound: CC(C)C(=O)O[C@H]1[C@@H](OC(=O)C(C)C)[C@](C#N)(c2ccc3c(N)ncnn23)O[C@@H]1COP(=O)(OCOC(=O)C(C)(C)C)OCOC(=O)C(C)(C)C [Compound 29, (2R,3R,4R,5R)-2-(4-aminopyrrolo[2,1-f][1,2,4]triazin-7-yl)-5-((((bis(((tert-butylcarbonyl)oxy)methoxy))phosphoryl)oxy)methyl)-2-cyanotetrahydrofuran-3,4-diyl bis(2-methylpropionate)]
- EC50: 10 to 50 nM
